Test results as given in US10065990B2, “Cyclic peptide compound, and preparation method, pharmaceutical composition and use thereof” (HANGZHOU GUANYU BIO-MEDICAL CO., LTD, priority 2013, dated 2018).
Like-named read-outs stand apart in the source and are kept apart here.

What was measured:
HDAC7 = biological target: T1, HDAC7 (Homo sapiens, UniProt Q8WUI4); assay: HDAC biochemical activity measurement (fluorescent substrate deacetylation);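 also: fluorogenic deacetylation assay using acetyl-lysine substrate at 20 µM, enzyme and compound incubated 30 min at 37 °C, then developer added, fluorescence read at 360/460 nm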; conditions: HDAC7; 37° C. 30 minutes
T1 sequence (Q8WUI4 1-952): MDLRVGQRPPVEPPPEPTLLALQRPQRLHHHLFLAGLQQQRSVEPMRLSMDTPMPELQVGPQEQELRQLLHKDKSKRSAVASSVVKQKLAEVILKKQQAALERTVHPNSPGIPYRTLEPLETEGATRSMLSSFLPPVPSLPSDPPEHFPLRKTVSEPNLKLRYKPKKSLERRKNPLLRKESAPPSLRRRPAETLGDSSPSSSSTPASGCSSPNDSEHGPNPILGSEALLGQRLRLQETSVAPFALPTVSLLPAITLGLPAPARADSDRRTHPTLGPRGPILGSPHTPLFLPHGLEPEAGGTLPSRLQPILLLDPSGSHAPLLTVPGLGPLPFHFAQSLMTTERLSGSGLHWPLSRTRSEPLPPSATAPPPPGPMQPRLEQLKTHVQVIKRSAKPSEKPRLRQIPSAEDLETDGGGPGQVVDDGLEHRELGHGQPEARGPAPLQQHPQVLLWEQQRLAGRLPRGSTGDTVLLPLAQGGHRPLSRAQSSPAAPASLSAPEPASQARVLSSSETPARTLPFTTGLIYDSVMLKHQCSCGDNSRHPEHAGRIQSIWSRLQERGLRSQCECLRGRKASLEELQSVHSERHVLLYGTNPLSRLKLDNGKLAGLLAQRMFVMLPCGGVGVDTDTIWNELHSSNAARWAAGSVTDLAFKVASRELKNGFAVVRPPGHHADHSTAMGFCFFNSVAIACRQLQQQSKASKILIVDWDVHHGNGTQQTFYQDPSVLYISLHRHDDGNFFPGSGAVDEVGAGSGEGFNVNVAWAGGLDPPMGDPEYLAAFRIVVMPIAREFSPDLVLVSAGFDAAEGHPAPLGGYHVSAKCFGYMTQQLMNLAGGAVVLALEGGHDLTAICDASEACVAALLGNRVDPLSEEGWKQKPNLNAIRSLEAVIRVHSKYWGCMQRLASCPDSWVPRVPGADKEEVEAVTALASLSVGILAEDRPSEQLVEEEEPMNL

[1] = system: MOLT-4 (human acute lymphoblastic leukemia cells); assay: MTT cancer cell growth inhibition; type: cell-based; conditions: Homo sapiens, MOLT-4, 72 h, MTT, 72 hours incubation, read-out: GI50 Mol
In short: (§1)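 GI50 values come from MTT viability: after 72 h compound exposure (final 10^−5–10^−10 M, three wells each) of cells plated overnight at 1500/well in 10% FBS medium, MTT was given for 4 h. The DMSO-solubilised formazan was then measured at 570 nm.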

[2] = system: Hela (human cervical cancer cells); assay: MTT cancer cell growth inhibition; type: cell-based; conditions: MTT, 72 hours incubation, read-out: GI50 Hela
In short: as §1

[3] = system: SGC-7901 (human gastric cancer cells); assay: MTT cancer cell growth inhibition; type: cell-based; conditions: Homo sapiens, SGC-7901, 72 h, MTT, 72 hours incubation, SGC-7901 cells; read-out: GI50 SGC-7901
In short: as §1

[4] = system: K562 (human leukemia cells); assay: MTT cancer cell growth inhibition; type: cell-based; conditions: Homo sapiens, K562, 72 h, MTT, 72 hours incubation, K562 cells; read-out: GI50 K562
In short: as §1

[5] = system: U937 (human leukemia cells); assay: MTT cancer cell growth inhibition; type: cell-based; conditions: Homo sapiens, U-937, 72 h, MTT, 72 hours incubation, read-out: GI50 U93
In short: as §1

[6] = system: DU145 (human prostate cancer cells); assay: MTT cancer cell growth inhibition; type: cell-based; conditions: Homo sapiens, DU-145, 72 h, MTT, 72 hours incubation, read-out: GI50 Du1
In short: as §1

[7] = system: H1975 (non-small cell lung adenocarcinoma); assay: MTT cancer cell growth inhibition; type: cell-based; conditions: MTT, 72 hours incubation, H1975 cells, read-out: GI50 H1975
In short: as §1

[8] = system: KBM-5 (human chronic myelogenous leukemia); assay: MTT cancer cell growth inhibition; type: cell-based; conditions: Homo sapiens, KBM5, 72 h, MTT, 72 hours incubation, KBM-5 cells; read-out: GI50 KBM-5
In short: as §1

[9] = system: lncap (prostate cancer cells); assay: MTT cancer cell growth inhibition; type: cell-based; conditions: Homo sapiens, LNCaP, 72 h, MTT, 72 hours incubation, read-out: GI50 lnca
In short: as §1

[10] = system: Huh-7 (human hepatoma cells); assay: MTT cancer cell growth inhibition; type: cell-based; conditions: Homo sapiens, Huh-7, 72 h, MTT, 72 hours incubation, Huh-7 cells; read-out: GI50 Huh-7
In short: as §1

[11] = system: BGC-823 (human gastric cancer cells); assay: MTT cancer cell growth inhibition; type: cell-based; conditions: Homo sapiens, BGC-823, 72 h, MTT, 72 hours incubation, read-out: GI50 BG
In short: as §1

[12] = system: HCC827 (human non-small cell lung cancer cells); assay: MTT cancer cell growth inhibition; type: cell-based; conditions: MTT, 72 hours incubation, HCC827 cells, read-out: GI50 HCC827
In short: as §1

[13] = system: A549 (human lung cancer cells); assay: MTT cancer cell growth inhibition; type: cell-based; conditions: MTT, 72 hours incubation, read-out: GI50 A54
In short: as §1

[14] = system: KBM5-T315I (human chronic myelogenous leukemia); assay: MTT cancer cell growth inhibition; type: cell-based; conditions: MTT, 72 hours incubation, KBM5-T315I cells, read-out: GI50 KBM5-T315I
In short: as §1

[15] = system: MCF-7 (human breast cancer cells); assay: MTT cancer cell growth inhibition; type: cell-based; conditions: Homo sapiens, MCF7, 72 h, 72 hours incubation, read-out: GI50 MCF
In short: as §1

[16] = system: MDA-MB-231 (breast cancer cells); assay: MTT cancer cell growth inhibition; type: cell-based; conditions: Homo sapiens, MDA-MB-231, 72 h, read-out: GI50 MDA-MB-231, MTT, 72 hours incubation, MDA-MB-231 cells
In short: as §1

[17] = system: N-87 (human gastric cancer cells); assay: MTT cancer cell growth inhibition; type: cell-based; conditions: Homo sapiens, 72 h, MTT, 72 hours incubation, N-87 cells; read-out: GI50 N-87
In short: as §1

[18] = system: HT1080 (human fibrosarcoma cells); assay: MTT cancer cell growth inhibition; type: cell-based; conditions: MTT, 72 hours incubation, read-out: GI50 HT1
In short: as §1

[19] = system: Bel-7402 (human hepatoma cells); assay: MTT cancer cell growth inhibition; type: cell-based; conditions: MTT, 72 hours incubation, Bel-7402 cells, read-out: GI50 Bel-7402
In short: as §1

[20] = system: PANC-1 (Pac-1, human pancreatic cancer cells); assay: MTT cancer cell growth inhibition; type: cell-based; conditions: Homo sapiens, PANC-1, 72 h, MTT, 72 hours incubation, read-out: GI50 PAN
In short: as §1

Row | IC50 HDAC7 (HDAC7) | GI50 [1] [nM] | GI50 ([2]; Homo sapiens, HeLa, 72 h) [nM] | GI50 [3] [nM] | GI50 [4] [nM] | GI50 [5] [nM] | GI50 [6] [nM] | GI50 ([7]; Homo sapiens, NCI-H1975, 72 h) [nM] | GI50 [8] [nM] | GI50 [9] [nM] | GI50 [10] [nM] | GI50 [11] [nM] | GI50 ([12]; Homo sapiens, HCC827, 72 h) [nM] | GI50 ([13]; Homo sapiens, A549, 72 h) [nM] | GI50 ([14]; Homo sapiens, 72 h) [nM] | GI50 [15] [nM] | GI50 [16] [nM] | GI50 [17] [nM] | GI50 ([18]; Homo sapiens, HT-1080, 72 h) [nM] | GI50 ([19]; Homo sapiens, Bel-7402, 72 h) [nM] | Structure (SMILES) | also measured
1 | no activity | 20 | 80 | 73 | 37 | 50 | 60 | 27 | 53 | 20 | 38 | 30 | 57 | 50 | 35 | 20 | 38 | 28 | 80 | 36 | C/C=C1\NC(=O)c2ccc(F)c(n2)CNC(=O)C[C@@H](/C=C/CCS)OC(=O)[C@H](CC)NC1=O [Compound 111] | GI50 [20]: 80 nM
2 | no activity | 80 | 50 | 32 | 57 | 70 | 100 | 35 | 46 | 50 | 19 | 30 | 35 | 40 | 53 | 100 | 35 | 84 | 40 | 55 | C/C=C1\NC(=O)c2nc(ccc2F)CNC(=O)C[C@@H](/C=C/CCSC(=O)CCC)OC(=O)[C@H](C(C)C)NC1=O [Example 42] | GI50 [20]: 40 nM
3 | no activity | 40 | 70 | 49 | 53 | 30 | 50 | 34 | 74 | 40 | 49 | 60 | 94 | 40 | 53 | 50 | 49 | 67 | 90 | 94 | C/C=C1\NC(=O)c2cc(F)cc(n2)CNC(=O)C[C@@H](/C=C/CCSC(=O)CCCCCC)OC(=O)[C@H](C(C)C)NC1=O [Example 34] | GI50 [20]: 90 nM
4 | no activity |  |  | 44 | 36 |  |  |  | 28 |  | 71 |  |  |  |  |  | 71 | 26 |  |  | C/C=C1\NC(=O)c2ccc(SC)c(n2)CNC(=O)C[C@@H](/C=C/CCSC(C)=O)OC(=O)[C@H](C)NC1=O [Compound 185] | GI50 ([1]; MOLT-4 cells): 50 nM; GI50 ([2]; Hela cells): 50 nM; GI50 ([5]; U937 cells): 50 nM; GI50 ([6]; DU145 cells): 30 nM; GI50 [7]: 12 nM; GI50 ([9]; lncap cells): 80 nM; GI50 ([11]; BGC-823 cells): 30 nM; GI50 [12]: 82 nM; GI50 ([13]; A549 cells): 10 nM; GI50 [14]: 13 nM; GI50 ([15]; MCF-7 cells): 60 nM; GI50 ([18]; HT1080 cells): 50 nM; GI50 [19]: 91 nM; GI50 ([20]; PANC-1 cells): 30 nM
5 | no activity |  |  | 28 | 83 |  |  | 57 | 83 |  | 53 |  | 26 |  | 33 |  | 45 | 46 |  | 55 | C/C=C1\NC(=O)c2nc(ccc2SC)CNC(=O)C[C@@H](/C=C/CCSC(C)=O)OC(=O)[C@@H](C)NC1=O [Compound 220] | GI50 ([1]; MOLT-4 cells): 50 nM; GI50 ([2]; Homo sapiens, HeLa, 72 h, Hela cells): 30 nM; GI50 ([5]; U937 cells): 80 nM; GI50 ([6]; DU145 cells): 30 nM; GI50 ([9]; lncap cells): 60 nM; GI50 ([11]; BGC-823 cells): 30 nM; GI50 ([13]; Homo sapiens, A549, 72 h, A549 cells): 40 nM; GI50 ([15]; MCF-7 cells): 20 nM; GI50 ([18]; Homo sapiens, HT-1080, 72 h, HT1080 cells): 80 nM; GI50 ([20]; PANC-1 cells): 30 nM
6 | no activity | 30 | 70 | 57 | 34 | 60 | 20 | 53 | 35 | 30 | 27 | 20 | 17 | 50 | 31 | 20 | 78 | 32 | 90 | 71 | C/C=C1\NC(=O)c2nc(ccc2F)CNC(=O)C[C@@H](/C=C/CCSC(C)=O)OC(=O)[C@@H](C)NC1=O [Compound 100] | GI50 [20]: 90 nM
